In assay [1] the test system is hepatocytes. As to conditions: in vitro; cited from earlier work.
In assay [2] the target is T1, PPAR-γ (peroxisome proliferator activated receptor gamma) (Homo sapiens, UniProt P37231).
T1 sequence (P37231 1-505): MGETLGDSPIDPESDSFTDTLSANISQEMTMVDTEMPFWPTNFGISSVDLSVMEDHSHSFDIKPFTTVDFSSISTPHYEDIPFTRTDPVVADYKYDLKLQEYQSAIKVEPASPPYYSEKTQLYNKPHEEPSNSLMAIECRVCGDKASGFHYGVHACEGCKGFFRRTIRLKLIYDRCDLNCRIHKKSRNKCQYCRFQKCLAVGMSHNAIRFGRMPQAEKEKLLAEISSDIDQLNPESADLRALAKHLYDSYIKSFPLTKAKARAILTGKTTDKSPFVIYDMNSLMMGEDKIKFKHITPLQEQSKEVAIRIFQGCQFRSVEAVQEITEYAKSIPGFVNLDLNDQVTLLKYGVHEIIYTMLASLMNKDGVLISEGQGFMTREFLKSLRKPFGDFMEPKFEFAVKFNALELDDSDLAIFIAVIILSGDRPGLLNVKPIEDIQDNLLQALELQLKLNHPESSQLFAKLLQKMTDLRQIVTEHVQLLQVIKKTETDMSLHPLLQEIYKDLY
The note with it: as described in WO 2010/014889 A2; cited from earlier work.

Assay [3] relates to Bleomycin-treated 3 mo old C57Bl6 mice. Put plainly: Reversal of established fibrosis in bleomycin-treated mice. The class given is in vivo. As to conditions: 7.5 mg/kg oral, 2 additional weeks. The text has this: Nitroalkenes can reverse established fibrosis.
Assay [4] relates to long-term NASH diet-induced liver damage. As to conditions: NASH diet mice; cited from earlier work.
Assay [5] relates to human stellate cells. The note with it: in vitro; cited from earlier work.
The test system of assay [6] is fibrotic vascular and tissue remodeling in heart, liver and lung. As to conditions: Ang II, hypoxia and obesity models; cited from earlier work.

The source of these data is patent US20230065014A1, “Nitro-Fatty Acid-Containing Microbubbles and Uses Therefor” (University of Pittsburgh-Of the Commonwealth System of …, priority 2020, published 2023).

As for NO2-oleic acid, the “TG biosynthesis and accumulation” value in assay [1] was “inhibited TG biosynthesis and accumulation”. Also, the “activation of the PPAR-γ receptor” value in assay [2] is recorded as “nanomolar activators”. Moreover, in assay [3], the Ashcroft scoring result is “decreased collagen deposition”; the “Masson's trichrome and αSMA staining” value is “resolution of pathologic remodeling”; the “qRT-PCR of TGFβ, Col1A1, αSMA, vimentin, MMP7 and E-cadherin expression” value was “inhibition of these pro-fibrotic indices”; the reversal of fibrosis result is given as “significant reversal of fibrosis”. Further, in assay [4], the “RNA-sequencing analysis of liver tissue” value was “inflammation and fibrosis as major pathways suppressed”; the “SREBPI proteolytic activation and subsequent lipogenesis gene expression” value was “inhibition of SREBPI proteolytic activation and subsequent lipogenesis gene expression”; the “body composition and energy metabolism (CLAMS and NMR-based analysis)” value is “improved body composition and energy metabolism”; the “hepatic triglyceride (TG) accumulation” value is listed as “inhibiting hepatic triglyceride (TG) accumulation”. In addition, in assay [4], the “liver steatosis and fibrosis by photoacoustic-ultrasound imaging” value was “robust inhibition of liver steatosis and fibrosis”. In assay [5], the fibrogenesis result was “inhibited fibrogenesis”. The “fibrotic vascular and tissue remodeling” value in assay [6] is “inhibit fibrotic vascular and tissue remodeling”.

For the compound `CCCCC/C=C(\C/C=C\CCCCCCCC(=O)O)[N+](=O)[O-]` [12-nitro linoleic acid, 12-nitrolinoleic acid], the “activation of the PPAR-γ receptor” value in assay [2] is “potent, selective activators”.

In the case of `CCCCCC=CC/C(=C\CCCCCCCC(=O)O)[N+](=O)[O-]` (stereo in doubt) [10-nitro linoleic acid, (9E,12Z)-10-nitrooctadeca-9,12-dienoic acid], in assay [2], the “activation of the PPAR-γ receptor” value is on record as “potent, selective activators”.

Take Nitro-linoleic acid: the “activation of the PPAR-γ receptor” value in assay [2] was “nanomolar activators”. Besides, the “fibrotic vascular and tissue remodeling” value in assay [6] was “inhibit fibrotic vascular and tissue remodeling”.
